In patent publication US7632933B2, “Corticotropin releasing factor 2 receptor agonists” (priority 2002, dated 2009):
pEC50: −log10 of the molar value. Like-named read-outs stand apart in the source and are kept apart here. Ends that are not written are not given here. Peptide text beside a SMILES is read from it.

Key:
CRF1R = target: T1, CRF1R (Homo sapiens, UniProt P34998); test: CRF1R agonist activity (EC50 and Emax), called comparative CRF binding; type: cell-based
T1 sequence (P34998 24-415): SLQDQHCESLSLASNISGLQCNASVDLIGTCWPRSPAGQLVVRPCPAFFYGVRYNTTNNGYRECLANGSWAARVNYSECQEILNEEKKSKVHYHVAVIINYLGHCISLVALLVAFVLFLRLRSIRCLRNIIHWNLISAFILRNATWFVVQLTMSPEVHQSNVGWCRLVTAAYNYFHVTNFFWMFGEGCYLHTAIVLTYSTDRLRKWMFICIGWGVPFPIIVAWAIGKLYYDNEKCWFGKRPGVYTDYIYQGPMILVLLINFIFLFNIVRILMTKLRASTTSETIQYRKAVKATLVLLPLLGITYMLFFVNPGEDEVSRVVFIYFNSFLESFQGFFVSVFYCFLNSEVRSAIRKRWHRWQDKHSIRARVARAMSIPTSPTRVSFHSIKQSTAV
From the text: (§1) The pharmacological activity and selectivity of the peptides of present invention can be determined using published test procedures. See, e.g, U.S. patent application Ser. No. 09/799,978. Because CRF2R and CRF1R are homologous proteins, it is expected that a certain proportion of agonists for CRF2R will also function as agonists of CRF1R. As discussed above, activation of CRF1R induces activation of the HPA axis since increased corticosteroid production leads to skeletal muscle atrophy. In most cases in which an increase in muscle mass or function is desired, it is not desirable to activate the HPA axis.
(§2) Because it is desirable to discriminate binding between CRF2R, as compared with CRF1R, the assays described above may be conducted using a cell, or membrane from a cell, which expresses only CRF2R or the assays can be conducted with a recombinant source of CRF2R. Cells expressing both forms of CRFR may be modified using homologous recombination to inactivate or otherwise disable the CRF1R gene. Alternatively, if the source of CRFR contains more than one CRFR type, the background signal produced by the receptor which is not of interest must be subtracted from the signal obtained in the assay. […] Known antagonists of CRFRs include, but are not limited to, antalarmin (CRF1R selective), antisauvagine-30 (CRF2R selective) and astressin (nonselective for CRF1R/CRF2R).
(§3) Cell-based assays include the steps of contacting cells which express CRF1R or CRF2R with a peptide of the present invention or control and measuring activation of the CRFR by measuring the expression or activity of components of the CRFR signal transduction pathways.
(§4) For example, after contact with a peptide of the present invention, lysates of the cells can be prepared and assayed for induction of cAMP. cAMP is induced in response to Gαs activation. Because Gαs is activated by receptors other than CRFR and because a test peptide may be exerting its effect through CRFRs or by another mechanism, two control comparisons are relevant for determining whether the peptide increases levels of cAMP via activation of a CRFR. One control compares the cAMP level of cells contacted with the peptide and the cAMP level of cells contacted with a control compound (i.e., the vehicle in which the peptide is dissolved).
(§5) In one example, cAMP induction is measured with the use of DNA constructs containing the cAMP responsive element linked to any of a variety of reporter genes can be introduced into cells expressing CRFRs. Such reporter genes include, but are not limited to, chloramphenicol acetyltransferase (CAT), luciferase, glucuronide synthetase, growth hormone, fluorescent proteins (e.g., Green Fluorescent Protein), or alkaline phosphatase. Following exposure of the cells to the peptide, the level of reporter gene expression can be quantitated to determine the peptide's ability to increase cAMP levels and thus determine the peptide's ability to activate the CRFR.
(§6) In addition to using cells expressing full length CRFRs, cells can be engineered which express CRFRs containing the ligand binding domain of the receptor coupled to, or physically modified to contain, reporter elements or to interact with signaling proteins. For example, a wild type CRFR or CRFR fragment can be fused to a G-protein resulting in activation of the fused G-protein upon agonist binding to the CRFR portion of the fusion protein. […] In addition, alternative pathways for induction of the CRE reporter could be eliminated to reduce basal levels.

CRF2R = target: T2, CRF2R (Homo sapiens, UniProt Q13324); test: CRF2R agonist activity (EC50 and Emax), called comparative CRF binding; type: cell-based
T2 sequence (Q13324 1-411): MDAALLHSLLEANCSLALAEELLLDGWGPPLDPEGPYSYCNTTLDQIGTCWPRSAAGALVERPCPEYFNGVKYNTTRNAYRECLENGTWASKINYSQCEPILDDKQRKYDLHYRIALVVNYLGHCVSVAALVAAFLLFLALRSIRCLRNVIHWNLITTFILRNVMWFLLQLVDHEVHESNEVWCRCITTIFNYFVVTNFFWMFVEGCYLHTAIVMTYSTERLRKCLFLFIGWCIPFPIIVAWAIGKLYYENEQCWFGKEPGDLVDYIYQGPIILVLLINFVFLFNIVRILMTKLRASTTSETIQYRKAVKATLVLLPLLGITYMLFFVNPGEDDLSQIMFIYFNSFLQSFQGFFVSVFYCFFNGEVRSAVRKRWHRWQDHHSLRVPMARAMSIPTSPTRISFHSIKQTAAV
From the text: as §1, §2, §3, §4, §5, §6

Compound | pEC50 (CRF2R; CRF2R, read-out: CRF2R EC50) | pEC50 (CRF1R; CRF1R, read-out: CRF1R EC50) | further results
CC[C@H](C)[C@H](NC(=O)[C@H](CCC(N)=O)NC(=O)[C@H](C)NC(=O)[C@H](CCSC)NC(=O)[C@H](CC(C)C)NC(=O)[C@H](Cc1c[nH]cn1)NC(=O)[C@H](C)NC(=O)[C@H](CC(N)=O)NC(=O)[C@H](C)NC(=O)[C@H](C)NC(=O)[C@H](C)NC(=O)[C@H](CCC(N)=O)NC(=O)[C@H](C)NC(=O)[C@H](CCCNC(=N)N)NC(=O)[C@H](CC(C)C)NC(=O)[C@H](CC(N)=O)NC(=O)[C@H](CCCCN)NC(=O)[C@H](C)NC(=O)[C@H](CCCCN)NC(=O)[C@H](C)NC(=O)[C@@H](NC(=O)[C@H](CC(N)=O)NC(=O)[C@H](Cc1ccccc1)NC(=O)[C@H](CC(C)C)NC(=O)[C@H](CC(C)C)NC(=O)[C@H](CC(N)=O)NC(=O)[C@H](CCSC)NC(=O)[C@@H](NC(=O)[C@H](CC(N)=O)NC(=O)[C@@H](NC(=O)[C@@H]1CCCN1C(=O)[C@@H](NC(=O)[C@H](CC(=O)O)NC(=O)[C@H](CC(C)C)NC(=O)[C@H](CO)NC(=O)[C@H](CC(C)C)NC(=O)[C@@H](NC(=O)[C@H](Cc1ccccc1)NC(=O)[C@H](CCCCN)NC(=O)[C@@H](N)[C@@H](C)O)[C@@H](C)O)C(C)C)[C@@H](C)O)[C@@H](C)CC)[C@@H](C)CC)C(N)=O [hUroIII, reference compound] (H-TKFTLSLDVPTNIMNLLFNIAKAKNLRAQAAANAHLMAQI-NH2) |  |  | pEC50 (CRF1R; CRF1R EC50): < 6.00; pEC50 (CRF2R; CRF2R EC50): < 7.00
CC[C@H](C)[C@H](N)C(=O)N[C@H](C(=O)N[C@@H](CC(C)C)C(=O)N[C@@H](CO)C(=O)N[C@@H](CC(C)C)C(=O)N[C@@H](CC(=O)O)C(=O)N[C@H](C(=O)N1CCC[C@H]1C(=O)N[C@H](C(=O)NCC(=O)N[C@@H](CC(C)C)C(=O)N[C@@H](CC(C)C)C(=O)N[C@@H](CCC(N)=O)C(=O)N[C@H](C(=O)N[C@@H](CC(C)C)C(=O)N[C@@H](CC(C)C)C(=O)N[C@@H](CCC(=O)O)C(=O)N[C@@H](CCC(N)=O)C(=O)N[C@@H](C)C(=O)N[C@@H](CCCCN)C(=O)N[C@@H](C)C(=O)N[C@@H](CCCNC(=N)N)C(=O)N[C@@H](C)C(=O)N[C@@H](C)C(=O)N[C@@H](CCCNC(=N)N)C(=O)N[C@@H](CCC(=O)O)C(=O)N[C@@H](CCC(N)=O)C(=O)N[C@@H](C)C(=O)N[C@H](C(=O)N[C@H](C(=O)N[C@@H](CC(N)=O)C(=O)N[C@@H](C)C(=O)N[C@@H](CCCNC(=N)N)C(=O)N[C@H](C(=O)N[C@@H](CC(C)C)C(=O)N[C@@H](C)C(=O)N[C@@H](CCCNC(=N)N)C(=O)N[C@H](C(N)=O)C(C)C)[C@@H](C)CC)[C@@H](C)O)[C@@H](C)O)[C@@H](C)CC)[C@@H](C)CC)C(C)C)C(C)C [compound 127] (H-IVLSLDVPIGLLQILLEQAKARAAREQATTNARILARV-NH2; N-terminus assumed) | 8.11 |  | CRF1R (Emax %) (CRF1R; CRF1R, Emax): (6) %; CRF2R (Emax %) (CRF2R; CRF2R, Emax): (94) %
SQEPPISLDLPIQLLREVLEMTKADQLAQQAHSNRKLLDIA-NH2 [compound 100] | ≤ 7.00 | ≤ 7.00 | 
NDDPPISIDLPFQLLRNMIEMARIENEREQAGLNAKYLAEV-NH2 [compound 258] | ≤ 7.00 | ≤ 6.00 | 
SQEPPISLDLTFGLLREVLEMTKADQLAQQAHSNRKLLDIA-NH2 [compound 88] | ≤ 7.00 | ≤ 7.00 | 
SQEPPISLDLPTELLREVLEMTKADQLAQQAHSNRKIIDIA-NH2 [compound 92] | ≤ 7.00 | ≤ 7.00 | 
SQEPPISLDLPFGLLREVLEMTKADQLAQQAHSNRKLLDIA-NH2 [compound 103] | ≤ 7.00 | ≤ 7.00 | 
SQEPPISLDLPLGLLREVLEMTKADQLAQQAHSNRKLLDIA-NH2 [compound 90] | ≤ 7.00 | ≤ 7.00 | 
SQEPPISLDLPLHLLREVLEMTKADQLAQQAHSNRKLLDIA-NH2 [compound 102] | ≤ 7.00 | ≤ 7.00 | 
CC[C@H](C)[C@H](N)C(=O)N[C@H](C(=O)N[C@@H](CC(C)C)C(=O)N[C@@H](CO)C(=O)N[C@@H](CC(C)C)C(=O)N[C@@H](CC(=O)O)C(=O)N[C@H](C(=O)N1CCC[C@H]1C(=O)N[C@H](C(=O)NCC(=O)N[C@@H](CC(C)C)C(=O)N[C@@H](CC(C)C)C(=O)N[C@@H](CCC(N)=O)C(=O)N[C@H](C(=O)N[C@@H](CC(C)C)C(=O)N[C@@H](CC(C)C)C(=O)N[C@@H](CCC(=O)O)C(=O)N[C@@H](CCC(N)=O)C(=O)N[C@H](C(=O)N[C@@H](CCCCN)C(=O)N[C@@H](C)C(=O)N[C@@H](CCCNC(=N)N)C(=O)N[C@@H](C)C(=O)N[C@@H](C)C(=O)N[C@@H](CCCNC(=N)N)C(=O)N[C@@H](CCC(=O)O)C(=O)N[C@@H](CCC(N)=O)C(=O)N[C@@H](C)C(=O)N[C@H](C(=O)N[C@H](C(=O)N[C@@H](CC(N)=O)C(=O)N[C@@H](C)C(=O)N[C@@H](CCCNC(=N)N)C(=O)N[C@H](C(=O)N[C@@H](CC(C)C)C(=O)N[C@@H](C)C(=O)N[C@@H](CCCNC(=N)N)C(=O)N[C@H](C(N)=O)C(C)C)[C@@H](C)CC)[C@@H](C)O)[C@@H](C)O)[C@@H](C)O)[C@@H](C)CC)[C@@H](C)CC)C(C)C)C(C)C [compound 117] (H-IVLSLDVPIGLLQILLEQTKARAAREQATTNARILARV-NH2; N-terminus assumed) | 8.03 |  | 
SQEPPISLDLPLELLREVLEMTKADQLAQQAHSNRKLLDIA-NH2 [compound 89] | ≤ 7.00 |  | 
CC[C@H](C)[C@H](N)C(=O)N[C@H](C(=O)N[C@@H](CC(C)C)C(=O)N[C@@H](CO)C(=O)N[C@@H](CC(C)C)C(=O)N[C@@H](CC(=O)O)C(=O)N[C@H](C(=O)N1CCC[C@H]1C(=O)N[C@H](C(=O)NCC(=O)N[C@@H](CC(C)C)C(=O)N[C@@H](CC(C)C)C(=O)N[C@@H](CCC(N)=O)C(=O)N[C@H](C(=O)N[C@@H](CC(C)C)C(=O)N[C@@H](CC(C)C)C(=O)N[C@@H](CCC(=O)O)C(=O)N[C@@H](CCC(N)=O)C(=O)N[C@@H](C)C(=O)N[C@@H](CCCCN)C(=O)N[C@@H](C)C(=O)N[C@@H](CCCNC(=N)N)C(=O)N[C@@H](C)C(=O)N[C@@H](C)C(=O)N[C@@H](CCCNC(=N)N)C(=O)N[C@@H](CCC(=O)O)C(=O)N[C@@H](CCC(N)=O)C(=O)N[C@@H](C)C(=O)N[C@H](C(=O)N[C@H](C(=O)N[C@@H](CC(N)=O)C(=O)N[C@@H](C)C(=O)N[C@@H](CCCNC(=N)N)C(=O)N[C@H](C(=O)N[C@@H](CC(C)C)C(=O)N[C@@H](C)C(=O)N[C@@H](CCCNC(=N)N)C(=O)N[C@H](C(N)=O)C(C)C)[C@@H](C)CC)[C@@H](C)O)[C@@H](C)O)[C@@H](C)CC)[C@@H](C)CC)C(C)C)C(C)C [compound 109] (H-IVLSLDVPIGLLQILLEQAKARAAREQATTNARILARV-NH2; N-terminus assumed) | 7.93 |  | 
